This is an account of results in EP0341661A2, “Peptide-drug compositions containing alpha-aminoboronic acid derivatives” (THE DU PONT MERCK PHARMACEUTICAL COMPANY, priority 1988, dated 1989).

For data set [1], the system named is aminopeptidases. Kind of data set: In situ nasal perfusion: degradation of 100 µM leucine enkephalin in the nasal perfusate. It is filed as in vivo, Sprague-Dawley rats. As to conditions: for % Leucine Enkephalin Remaining: 0.1 µM inhibitor; for order of inhibition of degradation: 0.1 µM boroleucine, 10 µM bestatin, 100 µM puromycin. Here is the method: In order to evaluate the effectiveness of the α-aminoboronic acid derivative inhibitors of this invention, an animal model was used (according to A. Hussain, J. Furaj, A. Yukihiko and J. E. Truelove, Biochem. Biophys. Res. Com. 133, 923, 1985) to assess the degradation of proteins and peptides in situ and in vivo in situ in the nasal cavity of rats. The method involved the use of Sprague-Dawley rats weighing approximately 300 grams. Each rat was anesthetized with sodium pentobarbitol (50 mg/kg). An incision was made in the neck and the trachea was canulated with PE 240 tubing. For the in situ studies, a second tube, which served to introduce the perfusing solution, was inserted through the esophagus to the posterior part of the nasal cavity. The nasopalatine was closed with an adhesive to prevent drainage of the perfusing solution from the nasal to the oral cavity. For the in vivo in situ studies, the esophagus was canulated using PE 240 tubing closed at one end. The closed end was pushed to the posterior end of the nasal passage and then tied in place. The nasopalatine was closed with an adhesive to prevent drainage of the perfusing solution from the nasal to the oral cavity. The rats were dosed in one nostril with 50 µl of peptide solution in two forms; the control solution had no inhibitor added, the test solution had inhibitor added at concentrations specified in the examples shown below. The dosing solution was 0.1 M phosphate buffer (pH 7.4). At certain time intervals (one rat/time interval), the drug was washed from the nose via the other nostril with 10 ml of 0.1 M phosphate buffer (pH 3.8) using a peristaltic pump. The nasal washing was then placed in a 10 ml volumetric flask and adjusted to 10 ml with the same buffer and analyzed for the peptide by HPLC. The analysis of leucine enkephalin and its major metabolite involved taking aliquots of samples, diluting them with 200 µl of 0.1 M citric acid (pH 2.3) to quench hydrolysis and subjecting the samples to analysis (for in vivo in situ studies, the washings were injected as they were obtained). High Pressure Liquid Chromatography (HPLC) was run on a 4.6 x 250 mm C₈ column. The mobile phase consisted of 0.1 M NaH₂PO₄-H₃PO₄-acetonitrile (916 : 5 : 275) and was delivered at a flow rate of 1.7 ml/min. Detection was by UV at 210 nm. Retention times for leucine enkephalin and its major degradation product, Des-Tyr-leucine enkephalin were 7.3 and 4.8 min., respectively. Data were calculated as % of leucine enkephalin remaining in the nasal perfusate as a function of time, counting the concentration at zero time as 100%. In this example, a 10 ml solution of 0.1 M phosphate buffer solution (pH 7.4) containing 100 µM leucine enkephalin (the peptide) in the absence or presence of 0.1 µM 3-methyl-1(4,4,5,5-tetramethyl-1,3,2-dioxaborolane-2-yl)-1-butamine, trifluoroacetic acid salt (boroleucine) as the inhibitor was perfused nasally in rats as described above. A 10 ml portion of the peptide solution was placed in a water-jacketed container, maintained at 37°C and circulated through the nasal cavity of rats using a peristaltic pump. The perfusing solution was passed through the nasal cavity, out the nostrils, through a funnel, and returned to the water-jacketed container. The perfusate was analyzed by the ANALYTICAL METHOD described above.

For data set [2] the following is noted: in vivo, cited from earlier work.
In data set [3] the test system is aminopeptidases. Kind of data set: In situ nasal perfusion: degradation of 100 µM leucine enkephalin in the nasal perfusate. As to conditions: 10 µM inhibitor. It is filed as in vivo, Sprague-Dawley rats.

As to `CC(N)B1OC(C)(C)C(C)(C)O1.O=C(O)C(F)(F)F` (stereo not drawn) [boroalanine, α,4,4,5,5-pentamethyl-1,3,2-dioxaborolane-2-methanamine, trifluoroacetic acid salt], the “% Leucine Enkephalin Remaining” value in data set [1] (0 min) was 100.0± 0.0%; in data set [1] (5 min), 94.7± 3.0%; in data set [1] (10 min), 91.9± 2.1%; in data set [1] (20 min), 88.5± 2.2%; in data set [1] (30 min) it was 84.1± 3.1%; in data set [1] (45 min), 77.5± 4.4%. Besides, the “% Leucine Enkephalin Remaining” value in data set [1] (60 min) was 69.9± 6.7%; in data set [1] (90 min) it was 56.4±12.1%.
With leuprolide, the “improvement of bioavailability over the oral route (factor)” value in data set [2] (po) is reported as 112 times. Moreover, the drug absorbed systemically in data set [2] (sc) is on record as “over 65%”.
Turning to `COc1ccc(C[C@H](N)C(=O)N[C@H]2[C@@H](O)[C@H](n3cnc4c(N(C)C)ncnc43)O[C@@H]2CO)cc1` [Puromycin, puromycin, reference compound], in data set [1], the “order of inhibition of degradation” value is listed as “boroleucine> bestatin> puromycin”. Besides, the “% of leucine enkephalin remaining in the nasal perfusate” value (shortened to “% of leucine enkephalin remaining”) in data set [1] (100 µM inhibitor, 0 min) stood at 100.0±0.0%; in data set [1] (100 µM inhibitor, 5 min), 96.7±2.4%; in data set [1] (100 µM inhibitor, 10 min), 91.3±3.4%; in data set [1] (100 µM inhibitor, 20 min), 82.4±4.1%; in data set [1] (100 µM inhibitor, 30 min), 78.5±3.2%; in data set [1] (100 µM inhibitor, 45 min), 73.6±2.2%. In addition, the “% of leucine enkephalin remaining” value in data set [1] (100 µM inhibitor, 60 min) came out at 63.5±5.6%; in data set [1] (100 µM inhibitor, 90 min), 48.9±6.7%.
As for `CC(C)C[C@H](NC(=O)[C@@H](O)[C@H](N)Cc1ccccc1)C(=O)O` [Bestatin, bestatin, reference compound], the “% of leucine enkephalin remaining” value in data set [3] (5 min) is given as 97.3±1.6%; in data set [3] (20 min), 90.0±3.3%; in data set [3] (60 min), 72.3±6.7%; in data set [1] (10 µM inhibitor, 0 min), 100.0±0.0%; in data set [1] (10 µM inhibitor, 10 min), 94.7±1.7%; in data set [1] (10 µM inhibitor, 30 min), 86.6±3.8%. Further, the “% of leucine enkephalin remaining” value in data set [1] (10 µM inhibitor, 45 min) was determined as 79.0±5.3%; in data set [1] (10 µM inhibitor, 90 min), 57.3±8.8%. In addition, the “order of inhibition of degradation” value in data set [1] is given as “boroleucine> bestatin> puromycin”.
In the case of `CC(C)C(N)B1OC(C)(C)C(C)(C)O1.O=C(O)C(F)(F)F` (stereo not drawn) [borovaline, 4,4,5,5-tetramethyl-α-(1-methylethyl)-1,3,2-dioxaborolane-2-methanamine, trifluoroacetic acid salt], the “% Leucine Enkephalin Remaining” value worked out at 100.0±0.0% in data set [1] (0 min); 96.3±1.9% in data set [1] (5 min); 95.7±1.5% in data set [1] (10 min); 94.8±1.4% in data set [1] (20 min); 91.6±1.6% in data set [1] (30 min); 89.1±2.5% in data set [1] (45 min). Also, the entries for the “% Leucine Enkephalin Remaining” value in data set [1] (60 min) and in data set [1] (90 min) were 86.2±2.5% and 78.3±4.3%, respectively. Besides, in data set [1] (0.1 µM of each inhibitor), the “comparison of the inhibitory effect of equimolar concentrations” value is given as “superior to boroalanine”.
